# Assay results published in US8436002B2, “AKT inhibitors” (Eli Lilly and Company, priority 2009, dated 2013).
# Like-named read-outs stand apart in the source and are kept apart here.
# How the values were obtained:
# H1155 = assay: Cell proliferation combination study (CellTiter-Glo); assay type: cell-based
# Method: (§1) The proliferation assay uses the CellTiter-Glo Luminescent Cell Viability Assay System (commercially available from Promega) to determine the cell number of viable cells in culture based on quantitation of the ATP present, which signals the presence of metabolically active cells.
# (§2) The cells are plated in 96-well plate at 2000 cells/well in volume of 50 μL medium (DMEM, 10% FBS, 25 mM HEPES, 1.0 mM Sodium Pyruvate, and 0.1 mM Non Essential Amino Acids) except column 1 with medium only as blank control. The plates are incubated overnight at 37° C. and 5% CO2. On the next day, compound stocks are prepared at 40 mM in DMSO (500×) and serially diluted in DMSO in a 96-well round bottom polypropylene plate. Compounds are assayed at 10 concentrations in duplicate, 4 compounds per plate.
# (§3) 4 μL of the serial DMSO dilutions are transferred to a 96 deep-well plate and 1 mL complete culture medium is added to create 2× stock for dosing. 50 μL of each 2× dosing stock is gently transferred to the corresponding well of the cell plate resulting in a 0.2% DMSO concentration and a 100 μL final volume. […] medium are added to the Control columns (Column 12) and background columns (Column 1). Cells are incubated with compound for at 37° C., 5% CO2 for 72 hr.
# (§4) After incubation, 100 μL of the pre-prepared CellTiter-Glo reagent (Promega, Cat: G7571) is added in each well and then the cells are homogenized by mixing on an orbital shaker for 2 min and incubated at RT for 10 minutes to allow luminescent signal stabilization Luminescent raw data is recorded on Wallac Victor V plate reader and the IC50 value for each compound is generated using percent inhibition data. A four-parameter logistic curve is fit to each dose response.
# (§5) Combination studies use the fixed ratio method, where the other therapeutic agent and the compound of the present invention are present in fixed ratios of concentrations corresponding to the IC50 equivalents of single agents. The read out for the combination studies is cell proliferation in respective cell lines using Cell Titer Glo reagents. Controls are processed similarly but without the compounds. Analysis of the data is done according to the method described in Zhao et. Al. (Clinical Cancer Research 10, 7994-8004, Dec. 1, 2004) utilizing an internally developed web based tool. A combination index is calculated for each cell proliferation inhibition activity level according to the equation below. Combination Index at activity level x=[Concentration of other therapeutic agent in the combination at the activity level x/ICx of the other therapeutic agent]+[Concentration of the compound of the present invention in the combination at the activity level x/ICx of the compound of the present invention]
# MDA-MB-231 = assay: as above; assay type: cell-based; conditions: with Paclitaxel
# Method: as §1, §2, §3, §4, §5
# MCF-7 = assay: as above; assay type: cell-based; conditions: with Paclitaxel
# Method: as §1, §2, §3, §4, §5
# [1] = biological target: T1, ROCK2 Human recombinant enzyme (Homo sapiens, UniProt O75116); assay: ROCK2 In Vitro Enzyme Assay (Transcreener Kinase ADP-FP); assay type: biochemical; conditions: 10 micromolar ATP; read-out: IC50 against ROCK2
# T1 construct: ROCK2 Human recombinant enzyme (residues 11-552, histidine-tagged, expressed in insect cells); His tag; host or cells: insect cells
# T1 sequence (O75116 11-552): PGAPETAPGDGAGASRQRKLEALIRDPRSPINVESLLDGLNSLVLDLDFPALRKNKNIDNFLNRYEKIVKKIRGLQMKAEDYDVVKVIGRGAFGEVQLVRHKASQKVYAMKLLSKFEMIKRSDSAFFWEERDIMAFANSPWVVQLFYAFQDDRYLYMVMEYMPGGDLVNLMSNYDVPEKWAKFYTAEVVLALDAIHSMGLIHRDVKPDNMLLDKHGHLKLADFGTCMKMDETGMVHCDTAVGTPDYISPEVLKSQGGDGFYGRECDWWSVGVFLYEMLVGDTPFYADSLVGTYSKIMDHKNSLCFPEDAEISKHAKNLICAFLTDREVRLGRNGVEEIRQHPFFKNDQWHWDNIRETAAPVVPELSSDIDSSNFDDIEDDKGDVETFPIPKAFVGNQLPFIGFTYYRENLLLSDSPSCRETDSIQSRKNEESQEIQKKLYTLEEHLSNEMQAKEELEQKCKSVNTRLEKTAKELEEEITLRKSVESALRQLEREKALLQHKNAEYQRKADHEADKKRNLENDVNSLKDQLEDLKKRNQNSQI
# Method: Compound IC50 values against ROCK2 kinase are determined using the ROCK2 Transcreener™ Kinase ADP-FP Assay. This assay assesses the activity of ROCK2 in the presence of compound inhibitors by measuring the concentration of ADP formed in a kinase reaction. The kinase reactions (25 μL reaction volumes) are performed in 96-well half-area black polystyrene plates. Enzyme is added to start the reactions. Final reaction conditions are 20 millimolar 3-(N-Morpholino)-propanesulfonic acid pH 7.4, 4 millimolar beta-glycero-phosphate, 0.01% TRITON™ X-100, 5 millimolar magnesium chloride, 25 micromolar peptide substrate (sequence RFARKGSLRQKNV (SEQ ID NO:1)), 10 micromolar ATP, ROCK2 Human recombinant enzyme (residues 11-552, histidine-tagged, expressed in insect cells), 4% dimethysulfoxide and serial dilutions of compound (diluted 1:3 from 20,000 to 1 nanomolar). […] Quenched reactions are incubated for 4-16 hours, and then read in a Tecan Ultra Evolution plate reader in Fluorescence Polarization mode using polarizing filters of Ex612 nm and Em633 nm wavelength. […] The IC50 value for each compound is derived using percent inhibition data which is calculated using the micromolar ADP reaction data relative to on-plate controls (active enzyme versus 100 millimolar EDTA-inhibited enzyme controls). […]
# hAKT1 Human Recombinant = biological target: T2, hAKT1 Human Recombinant (Homo sapiens, UniProt P31749); assay: AKT1 In Vitro Enzyme Assay (Transcreener Kinase ADP-FP); assay type: biochemical; conditions: 20 micromolar ATP; read-out: IC50 against AKT1
# T2 construct: His tag; host or cells: insect cells
# T2 sequence (P31749 whole entry): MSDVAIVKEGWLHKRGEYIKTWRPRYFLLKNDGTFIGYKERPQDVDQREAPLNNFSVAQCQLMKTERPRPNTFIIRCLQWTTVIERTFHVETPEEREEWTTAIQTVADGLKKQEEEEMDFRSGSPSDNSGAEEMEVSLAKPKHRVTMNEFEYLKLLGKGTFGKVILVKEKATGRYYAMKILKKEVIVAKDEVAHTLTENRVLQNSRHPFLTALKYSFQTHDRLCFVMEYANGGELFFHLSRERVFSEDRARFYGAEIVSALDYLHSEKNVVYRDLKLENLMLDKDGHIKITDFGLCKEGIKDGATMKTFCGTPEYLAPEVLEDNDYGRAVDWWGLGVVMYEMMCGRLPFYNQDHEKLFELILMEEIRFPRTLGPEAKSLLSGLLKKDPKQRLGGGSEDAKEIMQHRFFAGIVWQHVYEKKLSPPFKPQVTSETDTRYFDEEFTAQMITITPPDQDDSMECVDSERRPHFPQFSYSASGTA
# Method: Compound IC50 values against AKT1 target are determined using the AKT1 Transcreener™ Kinase ADP-FP Assay. This assay assesses the activity of AKT1 in the presence of compound inhibitors by measuring the concentration of adenosine diphosphate (ADP) formed in a kinase reaction. The kinase reactions (25 μL reaction volumes) are performed in 96-well half-area black polystyrene plates. Adenosine triphosphate (ATP) is added to start the reactions. Final reaction conditions are 56 millimolar N-2-hydroxyethylpiperazine-N′-2-ethanesulfonic acid (HEPES) pH 7.4, 0.008% TRITON™ X-100, 5 millimolar magnesium chloride, 30 micromolar Crosstide peptide, 20 micromolar ATP, hAKT1 Human Recombinant, V-AKT Murine Thymoma Viral Oncogene Homolog 1, histidine-tagged, expressed in insect cells, 4% dimethylsulfoxide and serial dilutions of compound (diluted 1:3 from 20,000 to 1 nanomolar). […] Quenched reactions are incubated for 4-16 hours, and then read in a Tecan Ultra Evolution plate reader in Fluorescence Polarization mode using polarizing filters of Ex612 nm and Em633 nm wavelength. […] The IC50 value for each compound is derived using percent inhibition data which is calculated using the micromolar ADP reaction data relative to on-plate controls (active enzyme versus 100 millimolar inhibited enzyme controls). […]
# [2] = tested on: phosphorylated GSK3β (S9) in U87MG cells; assay: AlphaScreen SureFire detection of phosphorylated GSK3β (S9) in U87MG cells; assay type: cell-based; conditions: Homo sapiens, U-87 MG, 1 hour, read-out: IC50, formation of phosphorylated GSK3β (S9)
# Method: The effect of compounds on the formation of endogenous phosphorylated GSK3β serine 9 (pGSK3β) are measured using the AlphaScreen SureFire® for pGSK3β(TGRGBS10K). This is a homogeneous assay format using immuno-sandwich capture of the phosphorylated analyte followed by detection using antibody-coated Alphascreen beads to generate an amplified signal.
# U87MG cells are maintained in U87MG growth medium consisting of DMEM supplemented with 10% Fetal bovine serum, 1% Nonessential amino acids and 1% sodium pyruvate. For the assay, cells are harvested by standard procedures and then counted using Vi-Cell. Cells (50,000/well) are plated in 100 μL of U87MG growth medium into Costar #3596 96 well plates. Plates are incubated overnight at 37° C., 5% CO2.
# On the day of the assay, cells are treated with 20 μL/well compound diluted in media containing 6% dimethylsulfoxide. […] The plate is sealed with foil, incubated at room temperature for 4 hours with gentle shaking and then read on Perkin Elmer EnVision equipped with a TurboModule using standard AlphaScreen® settings (Ex680 nm and Em520-620 nm). The percent inhibition determined from controls on each plate and ten-point compound concentration data are then fit to a four-parameter logistic equation using ACTIVITYBASE 4.0 (Assay Guidance Manual Version 5.0, 2008, Eli Lilly and Company and NIH Chemical Genomics Center).
# AKT = AKT In Vivo Target Inhibition (Oral and Parenteral), U87MG tumors in athymic nude mice; conditions: Mus musculus, U-87 MG, after 2 hours at 12.5 mg/kg, mean of 6 animals per group
# Method: U87MG human glioblastoma cells (5×106) are subcutaneously implanted into the flank of athymic nude mice in 0.2 mL of matrigel. Two weeks post-implantation, mice are dosed orally or parenterally according to a time course, single dose/single time point, or dose response protocol for the determination of TMED50 (threshold minimum effective dose). Tumors are flash frozen at harvest and blood is collected for the determination of parent compound plasma exposure and the calculation of TMEC50 (threshold minimum effective concentration) in the case of dose response studies. Tumors or tissues are pulverized in liquid N2 and lysed in 400 μL of XY Lysis Buffer (10 μg/mL Leupeptin, 10 μg/mL Trypsin-Chymotrypsin Inhibitor, 10 μg/mL Tosyl phenyl-alanyl chloromethyl ketone, 10 μg/mL Aprotinin, 60 mM Beta-Glycerol Phosphate, 1% Triton X100, 25 mM Tris pH 7.5, 2.5 mM Pyrophosphate, 150 mM NaCl, 2 mM p-tosyl-L-arginine methyl ester, 15 mM para-nitrophenyl phosphate, 5 mM Benzamidine, 1 mM Na Vanadate, 10 mM NaF, 50 μg/mL phenyl-methane sulfonyl fluoride, 1 mM 1,4-Dithiothreitol (DTT), 15 mM EDTA pH 8.0, 5 mM EGTA pH 8.0, 1 μM Microcystin, 1 μM Okadaic Acid, and 1 Roche Complete protease inhibitor mini-tablet per 10 mL) using Lysing Matrix D tubes (MP Biomedicals, Solon, Ohio, cat #6913-500) and a BIO101 Thermo Savant Fast Prep FP12. Lysates are aliquoted and either assayed immediately or stored at −80° C. for later testing. In Vivo Target Inhibition of AKT is measured utilizing Meso Scale Discovery (Gaithersburg, Md.) ELISA technology to assess effects on phosphorylation of the downstream effectors FOXO, PRAS40 and GSK3β(S9). In summary, 20 μg of lysate is added to carbon electrode containing 96-well plates pre-spotted with the appropriate capture antibodies. The protein of interest is probed using a ruthenium labeled detection antibody. Upon the passage of current over the electrode in the presence of read buffer containing the co-reactant TPA, electro-chemiluminescence results in the generation of light which is quantified and recorded using the MSD Sector 6000 instrument. For each study, percent inhibitions are calculated relative to the vehicle control group and ANOVA analysis is performed using the JMP software package for the determination of statistical significance.
structure (smiles),measurement,setting,value
"C[C@@H]1CC(=O)Nc2ncnc(N3CCC(c4nc(C5CCOCC5)cn4CCN4CCCC4)CC3)c21 [Example 73, (R)-5-Methyl-4-(4-(1-(2-(pyrrolidin-1-yl)ethyl)-4-(tetrahydro-2H-pyran-4-yl)-1H-imidazol-2-yl)piperidin-1-yl)-5,6-dihydropyrido[2,3-d]pyrimidin-7(8H)-one]",Combination Index at 50% Inhibition,H1155; with Cisplatin,0.82
same,Combination Index at 50% Inhibition,H1155; with Gemcitabine,0.87
same,Combination Index at 50% Inhibition,H1155; with Pemetrexed,0.29
same,Combination Index at 50% Inhibition,MDA-MB-231,1.25
same,Combination Index at 50% Inhibition,MCF-7,0.56
"C[C@@H]1CC(=O)Nc2ncnc(N3CCC(c4nc(Cl)cn4CCN4CCCC4)CC3)c21 [Example 41, (R)-4-(4-(4-chloro-1-(2-(pyrrolidin-1-yl)ethyl)-1H-imidazol-2-yl)piperidin-1-yl)-5-methyl-5,6-dihydropyrido[2,3-d]pyrimidin-7(8H)-one]",IC50,[1],> 20000 nM
same,IC50,hAKT1 Human Recombinant,17 nM
same,IC50,[2],1500 nM
"CCc1cn(CCN2CCCC2)c(C2CCN(c3ncnc4c3[C@H](C(F)(F)F)CC(=O)N4)CC2)n1 [Example 26, (R)-4-(4-(4-ethyl-1-(2-(pyrrolidin-1-yl)ethyl)-1H-imidazol-2-yl)piperidin-1-yl)-5-(trifluoromethyl)-5,6-dihydropyrido[2,3-d]pyrimidin-7(8H)-one]",inhibition at 12.5 mg/kg,AKT; read-out: Mean % Inhibition FOXO3a (T32),36.8%
same,inhibition at 12.5 mg/kg,AKT; read-out: Mean % Inhibition pAKT (S473),21.7%
same,inhibition at 12.5 mg/kg,AKT; read-out: Mean % Inhibition pGSK3β (S9),34.4%
same,inhibition at 12.5 mg/kg,AKT; read-out: Mean % Inhibition pPRAS40 (T246),8.1%
